Experimental data taken from patent US10159265B2, “Feed composition for reducing ruminant methanogenesis” (priority 2012, dated 2018).
Marks after values point to notes of the source that are not given here.

Key:
[1] = test system: "in vitro" ruminal fluid cultures; assay: Ammonia (N-NH3) concentration in "in vitro" ruminal fluid cultures; format: cell-based, calves; conditions: 72 h
[2] = test system: "in vitro" ruminal fluid cultures; assay: Volatile fatty acid concentration and molar proportions in "in vitro" ruminal fluid cultures; format: cell-based, calves
Description: (§1) Two trials following an identical experimental protocol were designed to study the effect of different pure flavonoids on rumen fermentation using a simulatory “in vitro” system based on the experimental protocol described by Theodorou M K et al. (1994) Animal Feed Science and Technology, 48 (3), p. 185-197; Mauricio, R. M., et al. (1999) Animal Feed Science and Technology 79, 321-330.
(§2) Rumen cannulated calves which received a mixed ration mainly composed of concentrate (90:10) were used as rumen fluid donor; feed composition is presented in Table 1. The inoculum was collected and filtered through two-layer surgical gauze and kept in thermo pots. Flavonoids (Table 2) plus 600 mg of concentrate (Table 1) and 60 mg of barley straw as the substrate were dosed by triplicate in preheated bottles (39° C.) and maintained under anaerobic conditions. Flavonoids isonaringin, neoeritrocin, poncirin were purchased from INDOFINE Chemical Company, Inc (USA). 10 ml of rumen fluid and 40 ml of incubation medium were added to the bottles (McDougall, El (1948) Studies on ruminant saliva. 1. The composition and output of sheep's saliva. Biochem J. 43(1) 99-109). Once the bottles were filled and the anaerobic condition was applied, the bottles were sealed and the incubation process was started in a hot water bath. Pressure readings were made at 2, 4, 6, 8, 12, 24, 36 and 48 hours. Each sample was incubated in triplicate in two sets or batches.
[…] P., 1982 Science des Aliments 2, 131-144), lactate (Taylor, K. A. C. C., 1996. Appl. Biochem. Biotechnol. Enzym. Eng. Biotechnol. 56, 49-58) and ammonia (Chaney, A. L., Marbach, E. P., 1962. Clin. Chem. 8, 130-132) analyses.

[3] = test system: "in vitro" rumen fluid culture; assay: Biogas production in "in vitro" rumen fluid culture (pressure meter); format: cell-based, calves; parameters: Average biogas production / Cumulative biogas production / Biogas production: unit not given here; conditions: Exp 1; for Average biogas production: average over doses and incubation times
Method: as §1
Gas production was determined from a semi-automatic pressure meter, the relationship between pressure levels and the produced gas volume was previously calculated.
as §2, with “Pressure readings were made at 2, 4, 6, 8, 12, 24, 36 and 48 hours.” left out

Streptococcus bovis = assay: qPCR relative quantification of Streptococcus bovis; format: cell-based; conditions: 12 hours of incubation
Method: as §2
(§3) After 12 hours of incubation, one bottle (replicate) from each treatment was opened, pH was recorded and the bottle was sampled for volatile fatty acids (Jouany, J. P., 1982 Science des Aliments 2, 131-144), lactate (Taylor, K. A. C. C., 1996. Appl. Biochem. Biotechnol. Enzym. Eng. Biotechnol. 56, 49-58) and ammonia (Chaney, A. L., Marbach, E. P., 1962. Clin. Chem. 8, 130-132) analyses.
(§4) The environmental DNA was extracted using the technique proposed by Yu and Morrison (2004). Quantification of Streptococcus bovis, Megasphaera elsdenii and Selenomonas ruminantium DNA was done by qPCR using specific primers (Tajima, K. et al. 2001. Appl. Environ. Microb. 67, 2766-2774; Ouwerkerk, D., et al. 2002. J. Appl. Microbiol. 92, 753-758). Results were statistically analyzed using the PROC MIXED procedure of SAS statistical package (SAS, 2000, User's guide: Statistics, version 8 editions inst., Inc., Cary, N.C.). The least significant difference was used to compare the means. Differences between means in which P<0.05 were accepted as significant.

ruminal bacteria = assay: Bacterial DNA concentration by qPCR; format: cell-based, calves; conditions: 12 hours of incubation
Method: as §2, §3, §4

Selenomonas ruminantium = assay: qPCR relative quantification of Selenomonas ruminantium; format: cell-based; conditions: 12 hours of incubation
Method: as §2, §3, §4

Megasphaera elsdenii = assay: qPCR relative quantification of Megasphaera elsdenii; format: cell-based; conditions: 12 hours of incubation
Method: as §2, §3, §4

[4] = test system: methanogenic (archea) populations; assay: Methane production in "in vitro" rumen fluid culture; format: cell-based, calves; parameters: Average methane production / Accumulated methane production / Methane production / Cumulative methane production: unit not given here; conditions: Exp 1
Description: as §1
as §2, with “Pressure readings were made at 2, 4, 6, 8, 12, 24, 36 and 48 hours.” left out
The effects of flavonoids substances on fermentation activity of certain archea populations which are theoretically responsible for the methane production were analyzed.
The experimental design allows determining whether the effect of flavonoids on methane reduction was derived from a general reduction in microbial activity and biogas production or contrarily flavonoid affects specifically on methanogenic (archea) populations. The presence of flavonoids in the culture medium reduced methane contribution in the total biogas production (P<0.05) although, again, the aforementioned impact was heterogeneous.

[5] = test system: "in vitro" ruminal fluid cultures; assay: Ammonia (N-NH3) concentration in "in vitro" ruminal fluid cultures; format: cell-based, calves
Description: as §1, §2, §3

[6] = test system: "in vitro" ruminal fluid culture; assay: Lactate concentration in "in vitro" ruminal fluid culture; format: cell-based, calves; conditions: 12 hours of incubation
Description: as §1, §2, §3

[7] = average over doses and incubation times

Compound: COc1ccc([C@@H]2CC(=O)c3c(O)cc(O[C@@H]4O[C@H](CO)[C@@H](O)[C@H](O)[C@H]4O[C@@H]4O[C@@H](C)[C@H](O)[C@@H](O)[C@H]4O)cc3O2)cc1 [Poncirin, poncirin]
- N-NH3 concentration [1]: 318.15 mg/L
- % Acetate, molar ratio ([2]; 0 h): 62.51 mol/100 mol
- % Butyrate, molar ratio ([2]; 0 h): 9.07 mol/100 mol
- % Propionate, molar ratio ([2]; 0 h): 20.03 mol/100 mol
- A/P rate (acetate/propionate) ([2]; 0 h): 3.12
- VFA concentration ([2]; 0 h (initial constant value)): 13.78 mmol/L
- % Acetate, molar ratio ([2]; 12 h): 55.44 mol/100 mol
- % Butyrate, molar ratio ([2]; 12 h): 9.61 mol/100 mol
- % Propionate, molar ratio ([2]; 12 h): 29.52 mol/100 mol
- A/P rate (acetate/propionate) ([2]; 12 h): 1.88
- VFA concentration ([2]; 12 h): 36.98 mmol/L
- % Acetate, molar ratio ([2]; 72 h): 55.36 mol/100 mol
- % Butyrate, molar ratio ([2]; 72 h): 10.20 mol/100 mol
- % Propionate, molar ratio ([2]; 72 h): 26.96 mol/100 mol
- A/P rate (acetate/propionate) ([2]; 72 h): 2.05
- VFA concentration ([2]; 72 h): 51.87 mmol/L
- % Acetate, molar ratio, average (μ) ([2]; average over incubation times): 57.77 mol/100 mol
- % Butyrate, molar ratio, average (μ) ([2]; average over incubation times): 9.63 ^a mol/100 mol
- % Propionate, molar ratio, average (M) ([2]; average over incubation times): 25.51 ^b mol/100 mol
- VFA concentration, average (μ) ([2]; average over incubation times): 34.21 mmol/L
- % Propionate, molar ratio, average (M) ([2]; average over incubation times, listed as poncirin): improved
- Cumulative biogas production ([3]; 12 h incubation): 180.63
- Cumulative biogas production ([3]; 24 h incubation): 224.90
- Cumulative biogas production ([3]; 48 h incubation): 262.00
- Cumulative biogas production ([3]; 72 h incubation): 284.28
- Average biogas production [3]: 237.95^cde
- Average biogas production ([3]; listed as poncirin): 238
- Biogas production ([3]; dose 1, 0.2 g/kg DM): 234.43
- Biogas production ([3]; dose 2, 0.5 g/kg DM): 241.48
- Relative Quantification 2^(ΔΔCt) S. bovis (Streptococcus bovis): 0.44
- Bacteria DNA (ruminal bacteria): 10.12 ^a μg/ml
- Relative Quantification 2^(ΔΔCt) S. ruminantium (Selenomonas ruminantium): 0.68
- Relative Quantification 2^(ΔΔCt) M. elsdenii (Megasphaera elsdenii): 0.98 ^ab
- Accumulated methane production ([4]; 12 h): 19.19
- Proportion of methane in the produced biogas ([4]; 12 h): 10.62
- Accumulated methane production ([4]; 24 h): 24.43
- Proportion of methane in the produced biogas ([4]; 24 h): 11.94
- Accumulated methane production ([4]; 48 h): 30.50
- Proportion of methane in the produced biogas ([4]; 48 h): 16.54
- Accumulated methane production ([4]; 72 h): 34.07
- Proportion of methane in the produced biogas ([4]; 72 h): 16.34
- Average methane production [4, 7]: 27.04^de
- Proportion of methane in the produced biogas [4, 7]: 13.86^cd
- Average methane production ([4]; average over doses and incubation times, listed as poncirin): decreased
- Methane production ([4]; dose 1, 0.2 g/kg DM): 26.61
- Proportion of methane in the produced biogas ([4]; dose 1, 0.2 g/kg DM): 13.92
- Methane production ([4]; dose 2, 0.5 g/kg DM): 27.47
- Proportion of methane in the produced biogas ([4]; dose 2, 0.5 g/kg DM): 13.80
- N-NH3 concentration ([5]; 0 h (initial constant value)): 149.99 mg/L
- N-NH3 concentration ([5]; 12 h): 159.33 mg/L
- N-NH3 concentration, average (M) ([5]; average over incubation times): 209.16 mg/L
- Lactate [6]: 87.5 mg/L
